Measurements as given in ChEMBL document CHEMBL1158226, “Comparative study of the vasodilatory effects of three quinazoline alkaloids isolated from Evodia rutaecarpa” (J Nat Prod, 1996).
Calls of active or inactive are those of the source. No cut-off for these calls is given here.

How the values were obtained:
Aorta [1] = test: Vasodilatory activity in endothelium-denuded Sprague-Dawley rat thoracic aortic ring assessed as inhibition of phenylephrine-induced contraction preincubated with L-NAME for 10 mins; format: functional, tissue-based
Aorta [2] = test: Vasodilatory activity in Sprague-Dawley rat endothelium-denuded thoracic aortic ring assessed as inhibition of phenylephrine-induced contraction at 0.1 to 100 uM; format: functional
[3] = target: T1, Adrenergic receptor alpha-1 (Rattus norvegicus, UniProt P15823+P23944+P43140); test: Displacement of [3H]prazosin from alpha1 adrenoceptor in rat heart membrane; format: cell membranes
T1 sequence (P15823 whole entry): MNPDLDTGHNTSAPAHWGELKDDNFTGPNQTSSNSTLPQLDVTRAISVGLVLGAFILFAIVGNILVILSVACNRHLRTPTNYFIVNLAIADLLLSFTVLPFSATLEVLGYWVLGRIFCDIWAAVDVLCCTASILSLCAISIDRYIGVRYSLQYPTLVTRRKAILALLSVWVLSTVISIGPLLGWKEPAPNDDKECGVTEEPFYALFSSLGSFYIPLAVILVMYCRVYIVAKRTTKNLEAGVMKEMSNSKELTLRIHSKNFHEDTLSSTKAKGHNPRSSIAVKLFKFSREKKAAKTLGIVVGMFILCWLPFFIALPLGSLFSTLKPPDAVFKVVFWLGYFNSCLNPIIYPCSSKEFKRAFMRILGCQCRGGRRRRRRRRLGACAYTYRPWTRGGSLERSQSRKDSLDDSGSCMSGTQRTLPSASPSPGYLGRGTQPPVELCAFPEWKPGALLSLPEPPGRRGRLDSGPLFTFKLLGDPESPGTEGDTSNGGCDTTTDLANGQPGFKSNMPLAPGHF
T1 sequence (P23944 whole entry): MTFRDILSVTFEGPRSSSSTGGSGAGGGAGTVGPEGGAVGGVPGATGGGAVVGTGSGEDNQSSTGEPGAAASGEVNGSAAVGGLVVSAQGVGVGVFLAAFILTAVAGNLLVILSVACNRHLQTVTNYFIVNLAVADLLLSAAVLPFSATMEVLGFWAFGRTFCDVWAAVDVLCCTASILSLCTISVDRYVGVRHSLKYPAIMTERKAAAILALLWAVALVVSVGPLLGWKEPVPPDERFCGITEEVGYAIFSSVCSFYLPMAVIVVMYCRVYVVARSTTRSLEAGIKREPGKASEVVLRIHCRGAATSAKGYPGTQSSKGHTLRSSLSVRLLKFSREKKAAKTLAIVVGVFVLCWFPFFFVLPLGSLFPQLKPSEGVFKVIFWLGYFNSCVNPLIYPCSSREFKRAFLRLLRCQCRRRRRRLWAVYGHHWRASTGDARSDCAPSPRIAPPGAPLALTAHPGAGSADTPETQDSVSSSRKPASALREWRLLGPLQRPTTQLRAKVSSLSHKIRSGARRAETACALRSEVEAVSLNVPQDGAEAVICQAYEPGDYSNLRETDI
T1 sequence (P43140 whole entry): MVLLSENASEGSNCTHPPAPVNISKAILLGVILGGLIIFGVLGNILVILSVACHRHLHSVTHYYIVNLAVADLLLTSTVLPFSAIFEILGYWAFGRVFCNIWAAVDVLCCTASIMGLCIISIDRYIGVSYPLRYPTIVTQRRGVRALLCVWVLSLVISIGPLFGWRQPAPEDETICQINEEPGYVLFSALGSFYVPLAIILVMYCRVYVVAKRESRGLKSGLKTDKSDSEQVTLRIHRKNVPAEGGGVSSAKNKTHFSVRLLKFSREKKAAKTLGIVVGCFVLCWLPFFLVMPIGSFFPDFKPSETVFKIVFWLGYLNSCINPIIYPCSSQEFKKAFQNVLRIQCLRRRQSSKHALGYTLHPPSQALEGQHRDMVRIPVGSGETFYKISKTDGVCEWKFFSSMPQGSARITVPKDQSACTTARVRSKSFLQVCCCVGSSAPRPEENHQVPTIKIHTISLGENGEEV

Aorta [4] = test: Vasodilatory activity in Sprague-Dawley rat endothelium-intact thoracic aortic ring assessed as inhibition of phenylephrine-induced contraction; format: functional, tissue-based
Aorta [5] = test: Vasodilatory activity in endothelium-denuded Sprague-Dawley rat thoracic aortic ring assessed as inhibition of phenylephrine-induced contraction in absence of L-NAME; format: functional, tissue-based
Aorta [6] = test: Vasodilatory activity in endothelium-denuded Sprague-Dawley rat thoracic aortic ring assessed as inhibition of phenylephrine-induced contraction preincubated with TEA for 1 hr; format: functional, tissue-based
[7] = Binding affinity to DHP binding site of L-type calcium channel at > 100 uM by radioligand binding assay
Aorta [8] = test: Vasodilatory activity in Sprague-Dawley rat endothelium-intact thoracic aortic ring assessed as inhibition of phenylephrine-induced contraction at 0.1 to 100 uM; format: functional
Aorta [9] = test: Vasodilatory activity in Sprague-Dawley rat endothelium-denuded thoracic aortic ring assessed as inhibition of phenylephrine-induced contraction; format: functional, tissue-based
[10] = Antagonist activity at alpha-adrenoceptor in Sprague-Dawley rat endothelium denuded thoracic aorta assessed as inhibition of phenylephrine-induced contraction; format: functional, tissue-based
[11] = Antagonist activity at 5-HT receptor in Sprague-Dawley rat endothelium denuded thoracic aorta assessed as inhibition of 5HT-induced contraction; format: functional, tissue-based
[12] = Binding affinity to DHP binding site of L-type calcium channel by radioligand binding assay
Aorta [13] = test: Vasodilatory activity in Sprague-Dawley rat thoracic aortic ring assessed as inhibition of potassium chloride-induced contraction; format: functional, tissue-based
Aorta [14] = test: Vasodilatory activity in Sprague-Dawley rat endothelium-intact thoracic aortic ring assessed as inhibition of phenylephrine-induced contraction at 100 uM; format: functional; parameters: scale not given: the % may be the effect or the level left

Row | EC50 (Aorta [1]) | Ki [3] | EC50 (Aorta [4]) | EC50 (Aorta [5]) | Activity [7] | EC50 (Aorta [9]) | Activity [12] | Compound | Emax (Aorta [2]) | Activity (Aorta [6]) | Emax (Aorta [8]) | pA2 [10] | pA2 [11] | Activity (Aorta [13]) | Activity (Aorta [14])
1 | 5830 nM | 2400 nM | 1640 nM | 1600 nM | Active | 7780 nM |  | C[n+]1c2n(c(=O)c3ccccc31)CCc1c-2[nH]c2ccccc12 [DEHYDROEVODIAMINE] | 100% | Active | 100% | 6.89 |  |  | 
2 | 2920 nM |  | 930 nM |  |  | 8140 nM | inactive | CN1c2ccccc2C(=O)N2CCc3c([nH]c4ccccc34)[C@@H]21 [EVODIAMINE] | 49.8% | Active | 100% |  | 6.25 | Active | 
3 |  |  | 1050 nM |  |  | 1750 nM | inactive | O=c1c2ccccc2nc2n1CCc1c-2[nH]c2ccccc12 [RUTAECARPINE] | 23% | Active | 96% |  |  |  | 72%
